Experimental data reported in patent EP0365087A1, “Immunotoxins for the treatment or prophylaxis of auto-immune diseases” (priority 1988, dated 1990).
No end group written: not given here.

Test system: male Lewis-rats
Test: DTH ear swelling after 65 kD-protein challenge in rats with adjuvant arthritis
Format: in vivo
Conditions: 0.01 mg/kg injections day 0-5 and day 8-12; 10 µg 65 kD-protein into ear day 22, swelling day 24; group average

## TAVVALELQ-OH [peptide I, Thr-Ala-Val-Val-Ala-Leu-Glu-Leu-Gln-OH]
  % swelling: 2.8 ± 3.4%
